{"source": "patent US20140194477A1", "about": "“KINASE PROTEIN BINDING INHIBITORS” (Roswell Park Cancer Institute, priority 2011, published 2014)", "key": {"[1]": {"assay": "7-day multiple-dose MTD toxicologic study of Y15, oral gavage, CD-1 mice", "format": "in vivo", "conditions": "both sexes, CD-1, mouse, in vivo, oral gavage in mice, daily for 7 days", "method": "(§5) • A 7-day, multiple-dose maximum tolerated dose toxicologic study of the chemical 1,2,4,5-Benzenetetramine tetrahydrochloride (Y15) was performed in CD-1 mice.\n(§6) • The chemical 1,2,4,5-Benzenetetramine tetrahydrochloride (Y15) was the test article. Y-15 is a chemical grade compound available through Sigma-Aldrich, The test article was prepared in phosphate buffered saline (PBS). The test article was prepared by the sponsor and delivered to the study director prior to the study. The test article was stored in the freezer (0° C.), protected from light.\n(§7) • The CD-1 [Hsd:ICR(CD-1)] albino mouse was used. […] Mice were obtained from Harlan (Frederick, Md.). • Mice were acclimated for a minimum of 2 days prior to testing. 20 male and 20 female mice, nulliparous and non-pregnant, were used. Normal weight gain, appearance and behavior were factors used to select healthy mice for testing. Only naive animals were used. Mice weighed 22-35 grams (males) and 20-27 grams (females), and were in good health at the start of the study. Mice were randomly assigned to 4 experimental groups (controls, low-dose, medium-dose, and high-dose) consisting of 5 males and 5 females. Mice were identified via cage cards, tail markings, and ear punch. Mouse identification codes contained information regarding experimental group (C=control, L=low-dose, M=medium-dose, H=high-dose), sex (M=male, F=female), and animal number (1-5). […] Tap water acidified to a pH of 2.5-3.5 was provided in autoclaved water bottles ad libitum. […] Environmental conditions in the animal housing room were maintained at an ambient temperature of 70±3°, relative humidity of 30-70%, and a 12:12 light-dark cycle. Animal housing rooms were ventilated with 100% fresh, HEPA filtered air with 10-15 air changes per hour.\n(§8) A 7-day multiple-dose MTD toxicology study was performed.\n(§9) The test article Y-15 was prepared in PBS and administered orally (PO) via orogastric gavage as a single daily dose on days 0-6 in the morning. The test article (Y-15) was diluted with the control article (PBS) so as not to exceed a volume of 100 μL. The test article was stored in the freezer (0° C.) and allowed to thaw and come to room temperature prior to administration. Mice were randomly allocated into 4 groups (controls, low-dose, medium-dose, and high-dose) consisting of 5 males and 5 females. Dosages were calculated on a “per mouse” basis, not on a mg/kg basis. […] Mice in the high-dose group received the equivalent of a 300 mg/kg dose for a 20 g mouse (6 mg). Mice in the control group received 100 μL of the control article (PBS). Groups received the following doses, drug concentrations, and gavage volumes, as outlined in Table 2:"}, "[2]": {"system": "CD-1 mice", "assay": "7-day multiple-dose MTD toxicologic study of Y15, oral gavage, CD-1 mice", "format": "in vivo", "method": "as §5, §6, §7, §8, §9"}, "[3]": {"assay": "7-day single-dose MTD toxicologic study of Y15, oral gavage, CD-1 mice", "format": "in vivo", "conditions": "both sexes, CD-1, mouse, in vivo, po", "protocol": "(§1) • A 7-day, single-dose maximum tolerated dose toxicologic study of the chemical 1,2,4,5-Benzenetetramine tetrahydrochloride (Y-15) was performed in CD-1 mice.\n(§2) • The chemical 1,2,4,5-Benzenetetramine tetrahydrochloride (Y-15) was the test article. Y-15 is a chemical grade compound available through Sigma-Aldrich. The test article was prepared in phosphate buffered saline (PBS). The test article was prepared by the sponsor and delivered to the study director prior to the study. The test article was stored in the freezer (0° C.), protected from light.\n(§3) • The CD-1 [Hsd:ICR(CD-1)] albino mouse was used. The CD-1 mouse is conventionally used in toxicity tests to provide information on which human hazards can be judged, and is one of the choices of species preferred by regulatory agencies. Mice were obtained from Harlan (Frederick, Md.). • Mice were acclimated for a minimum of 2 days prior to testing. […] mice, nulliparous and non-pregnant, were used. Normal weight gain, appearance and behavior were factors used to select healthy mice for testing. Only naive animals were used. Mice were 4-7 weeks old, weighed 22-34 grams (males) and 19-24 grams (females), and were in good health at the start of the study. Mice were 5-8 weeks old, weighed 23-36 grams (males) and 20-25 grams (females) at the conclusion of the study. • Mice were randomly assigned to 8 experimental groups consisting of 3 males and 3 females which received increasing doses of the chemical Y-15. Mice were identified via cage cards, tail markings, and ear punch. Mouse identification codes contained information regarding experimental group (A=15 mg/kg dose group, B=30 mg/kg dose group, C=60 mg/kg dose group, D=90 mg/kg dose group, E=120 mg/kg dose group, F=150 mg/kg dose group, G=200 mg/kg dose group, and H=250 mg/kg dose group), sex (M=male, F=female), and animal number (1-3). Mice were fed autoclaved Harlan-Teklad sterilizable 7012 mouse/rat diet ad libitum. The feed is routinely analyzed by the manufacturer for nutritional components and environmental contaminants. Tap water acidified to a pH of 2.5-3.5 was provided in autoclaved water bottles ad libitum. Municipal water supply is analyzed by the Bureau Veritas Consumer Product Services of Buffalo, NY on an annual basis. […]\n(§4) • The test article 1,2,4,5-Benzenetetramine tetrahydrochloride (Y15) was prepared in PBS and administered orally (PO) via orogastric gavage as a single dose on day 0 in the morning. […] Dosages were calculated on a “per mouse” basis, not on a mg/kg basis. […]"}, "[4]": {"system": "CD-1 mice", "assay": "7-day single-dose MTD toxicologic study of Y15, oral gavage, CD-1 mice", "format": "in vivo", "protocol": "as §1, §2, §3, §4"}, "[5]": {"biological_target": "FAK (Homo sapiens, UniProt Q05397)", "sequence (Q05397 whole entry)": "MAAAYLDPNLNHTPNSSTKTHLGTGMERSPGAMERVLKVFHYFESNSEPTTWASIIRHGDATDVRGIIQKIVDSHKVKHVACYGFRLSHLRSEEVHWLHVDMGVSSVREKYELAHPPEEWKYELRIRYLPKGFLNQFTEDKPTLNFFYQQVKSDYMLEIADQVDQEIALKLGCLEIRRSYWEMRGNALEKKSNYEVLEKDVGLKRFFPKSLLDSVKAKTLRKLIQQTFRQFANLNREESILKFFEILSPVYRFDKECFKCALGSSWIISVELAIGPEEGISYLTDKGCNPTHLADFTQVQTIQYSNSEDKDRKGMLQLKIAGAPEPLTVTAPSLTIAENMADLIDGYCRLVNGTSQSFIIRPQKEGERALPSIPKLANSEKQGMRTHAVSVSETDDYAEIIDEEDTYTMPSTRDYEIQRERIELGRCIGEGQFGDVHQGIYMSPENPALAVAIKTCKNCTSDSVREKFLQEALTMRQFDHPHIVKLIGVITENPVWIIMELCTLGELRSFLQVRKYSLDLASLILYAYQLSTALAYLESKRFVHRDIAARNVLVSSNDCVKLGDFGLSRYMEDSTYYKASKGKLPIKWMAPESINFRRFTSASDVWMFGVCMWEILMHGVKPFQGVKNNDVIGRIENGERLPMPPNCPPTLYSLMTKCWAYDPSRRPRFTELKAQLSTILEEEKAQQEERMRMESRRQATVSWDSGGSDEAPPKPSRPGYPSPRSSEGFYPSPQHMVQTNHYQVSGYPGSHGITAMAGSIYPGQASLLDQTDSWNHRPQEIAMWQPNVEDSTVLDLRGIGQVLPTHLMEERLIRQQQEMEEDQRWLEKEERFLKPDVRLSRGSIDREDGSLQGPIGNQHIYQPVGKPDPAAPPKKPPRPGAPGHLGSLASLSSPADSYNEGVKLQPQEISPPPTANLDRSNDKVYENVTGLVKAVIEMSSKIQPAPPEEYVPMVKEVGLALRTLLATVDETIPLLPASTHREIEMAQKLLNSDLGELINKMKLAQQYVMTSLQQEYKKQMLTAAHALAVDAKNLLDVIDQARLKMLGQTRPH", "assay": "FAK Y397 phosphorylation", "format": "biochemical", "conditions": "in vitro"}, "[6]": {"system": "cancer cell", "assay": "Cancer cell viability in vitro", "format": "cell-based"}, "[7]": {"system": "tumor", "assay": "Tumor growth in vivo"}}}
{"compound": "Cl.Cl.Cl.Cl.Nc1cc(N)c(N)cc1N", "note": "[Y15, 1,2,4,5-benzenetetraamine tetrahydrochloride]", "values": [{"measurement": "MTD at 7 days", "setting": "[1]", "result": "≥ 100", "unit": "mg/kg"}, {"measurement": "NOAEL at 7 days", "setting": "[1]; read-out: no observable adverse effects level (NOAEL)", "result": 100, "unit": "mg/kg"}, {"measurement": "maximal tolerated dose (summary statement)", "setting": "[2]; delivery 5 days/week, duration 7 days", "result": 200, "unit": "mg/kg"}, {"measurement": "toxicity findings, medium-dose group", "setting": "[2]; oral gavage daily days 0-6, 100 mg/kg", "result": "no mortality, clinical signs of toxicity, or decrement in mean body weight"}, {"measurement": "toxicity findings, high-dose group", "setting": "[2]; oral gavage daily days 0-6, 200 mg/kg", "result": "weight loss, severe clinical signs of abdominal distention, and mortality due to gastrointestinal dilatation"}, {"measurement": "MTD at 7 days", "setting": "[3]", "result": 200, "unit": "mg/kg"}, {"measurement": "maximal tolerated dose (summary statement)", "setting": "[4]; delivery once /week, duration 7 days", "result": 250, "unit": "mg/kg"}, {"measurement": "toxicity findings, other dose groups", "setting": "[4]; single oral gavage dose, 15-200 mg/kg groups", "result": "no mortality, adverse clinical signs, or decrement in body weight greater than 10%"}, {"measurement": "mortality, highest dose group", "setting": "[4]; single oral gavage dose, group H 250 mg/kg", "result": "mortality was seen"}, {"measurement": "Y397-phosphorylation of FAK in vitro", "setting": "[5]", "result": "directly and specifically decreases"}, {"measurement": "cancer cell viability in vitro", "setting": "[6]", "result": "inhibits cancer cell viability in vitro"}, {"measurement": "tumor growth in vivo", "setting": "[7]", "result": "blocks tumor growth in vivo"}]}
